Experimental data from patent US20030171347A1, “Sigma receptor antagonists having anti-cocaine properties and uses thereof” (priority 1998, published 2003).
Where two headings read alike, the source gives them in different places.

How the values were obtained:
[1] = target: T1, σ1 receptors (Cavia porcellus, UniProt Q60492); assay: σ1 receptor competition binding; design: species or system guinea pig; settings: [3H](+)-pentazocine, guinea pig brain, read-out: σ1
T1 construct: Crude P2 membranes were prepared from guinea pig brain, rat brain, or rat liver; from tissue; host or cells: guinea pig brain (crude P2 membranes)
T1 sequence (Q60492 whole entry): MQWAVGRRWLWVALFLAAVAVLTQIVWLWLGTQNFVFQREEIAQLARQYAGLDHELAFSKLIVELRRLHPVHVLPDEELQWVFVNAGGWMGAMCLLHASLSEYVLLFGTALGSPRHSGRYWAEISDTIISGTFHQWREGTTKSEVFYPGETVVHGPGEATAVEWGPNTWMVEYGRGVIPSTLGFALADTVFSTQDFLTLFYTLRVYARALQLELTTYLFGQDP

[2] = target: T2, σ2 sites (Rattus norvegicus, UniProt Q5U3Y7); assay: σ2 receptor competition binding; settings: [3H]DTG plus dextrallorphan, rat liver
T2 construct: Crude P2 membranes were prepared from guinea pig brain, rat brain, or rat liver; from tissue; host or cells: rat liver (crude P2 membranes)
T2 sequence (Q5U3Y7 1-176): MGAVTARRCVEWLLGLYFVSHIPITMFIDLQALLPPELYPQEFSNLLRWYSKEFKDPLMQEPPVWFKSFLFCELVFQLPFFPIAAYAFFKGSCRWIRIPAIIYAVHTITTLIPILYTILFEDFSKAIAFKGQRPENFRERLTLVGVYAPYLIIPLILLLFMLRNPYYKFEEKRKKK

[3] = target: T3, Dopamine (D2) receptors (Rattus norvegicus, UniProt P61169); assay: Dopamine D2 receptor competition binding ([3H](−)sulpiride); settings: rat brain homogenates, [3H](−)sulpiride; read-out: Dopamine (D2)
T3 construct: from tissue; host or cells: rat brain homogenate / P2 membranes
T3 sequence (P61169 whole entry): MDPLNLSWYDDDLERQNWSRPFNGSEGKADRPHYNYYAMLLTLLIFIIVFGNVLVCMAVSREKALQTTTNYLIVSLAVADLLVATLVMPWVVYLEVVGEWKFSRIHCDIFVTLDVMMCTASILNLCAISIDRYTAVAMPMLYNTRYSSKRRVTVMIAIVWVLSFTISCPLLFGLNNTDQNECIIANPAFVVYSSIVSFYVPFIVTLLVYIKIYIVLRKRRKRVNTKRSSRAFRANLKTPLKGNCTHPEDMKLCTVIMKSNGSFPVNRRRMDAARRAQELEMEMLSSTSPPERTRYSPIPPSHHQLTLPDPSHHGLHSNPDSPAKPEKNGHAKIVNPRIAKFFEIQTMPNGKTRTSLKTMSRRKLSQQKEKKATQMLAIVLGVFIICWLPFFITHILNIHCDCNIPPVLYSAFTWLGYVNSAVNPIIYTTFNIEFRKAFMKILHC

[4] = target: PCP sites on NMDA receptors (Rattus norvegicus, UniProt P35439); assay: PCP site competition binding ([3H]TCP); settings: rat brain homogenates, [3H]TCP; read-out: NMDA (PCP)
[5] = target: 5-HT2 receptors (Rattus norvegicus, UniProt P14842); assay: 5-HT2 receptor competition binding ([3H]ketanserin); settings: rat brain homogenates, [3H]ketanserin; read-out: 5-HT2
Chain of 5-HT2 receptors (P14842 whole entry): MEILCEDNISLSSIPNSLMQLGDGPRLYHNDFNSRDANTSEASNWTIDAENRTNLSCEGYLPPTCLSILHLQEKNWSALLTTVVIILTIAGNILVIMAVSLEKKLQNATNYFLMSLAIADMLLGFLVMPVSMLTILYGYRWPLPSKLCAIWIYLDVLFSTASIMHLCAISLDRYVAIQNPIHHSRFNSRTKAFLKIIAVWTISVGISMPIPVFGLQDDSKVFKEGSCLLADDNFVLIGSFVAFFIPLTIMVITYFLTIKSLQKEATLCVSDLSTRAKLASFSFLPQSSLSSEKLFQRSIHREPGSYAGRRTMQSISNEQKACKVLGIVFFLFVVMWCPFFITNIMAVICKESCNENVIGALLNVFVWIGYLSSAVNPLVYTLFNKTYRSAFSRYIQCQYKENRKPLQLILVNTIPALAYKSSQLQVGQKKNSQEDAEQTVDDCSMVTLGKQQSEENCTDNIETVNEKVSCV

[6] = system: Male, Swiss Webster mice; assay: Effects of sigma ligands alone on baseline locomotor activity; assay type: in vivo; settings: 30 min; i.p. mg/kg: BD1008 1, BD1067 5, BD1047 30, LR172 5, BD1018 30, BD1063 30, LR132 30, LR176 10, YZ011 0.1, YZ027 1, YZ029 5
[7] = system: Male, Swiss Webster mice; assay: Attenuation of cocaine-induced locomotor activity; assay type: in vivo; settings: same ligand doses as baseline test, 15 min before cocaine 10 mg/kg i.p.; 30 min; ANOVA
[8] = Table 1, mean±SEM, minimum of two independent assays

| Structure (SMILES) | Ki [1, 8] [nM] | Ki [2, 8] [nM] | IC50 [3] [nM] | IC50 [4] [nM] | IC50 [5] [nM] | baseline horizontal locomotor activity versus saline [6] | cocaine stimulated locomotor activity after pre-treatment [7] | Ki ([1]; Table 4, second series) [nM] | Ki ([2]; Table 4, second series) [nM] |
| --- | --- | --- | --- | --- | --- | --- | --- | --- | --- |
| CN(CCc1ccccc1[N+](=O)[O-])CCN1CCCC1 [YZ-028] | 8 ± 0.9 | 311 ± 4 | > 10000 | > 10000 | > 10000 | – | – | – | – |
| CN(CCc1ccc([N+](=O)[O-])cc1)CCN1CCCC1 [YZ-029] | 4 ± 0.9 | 63 ± 0.1 | > 10000 | > 10000 | > 10000 | no significant difference | significant reduction in cocaine stimulated locomotor activity | – | – |
| CN(CCc1ccc(N)cc1)CCN1CCCC1 [YZ-030] | 276 ± 13 | 973 ± 77 | > 10000 | > 10000 | > 10000 | – | – | – | – |
| CN(CCc1ccccc1N)CCN1CCCC1 [YZ-032] | 291 ± 38 | 640 ± 25 | > 10000 | > 10000 | > 10000 | – | – | – | – |
| CN(CCc1cccc(N)c1)CCN1CCCC1 [YZ-033] | 579 ± 35 | 2240 ± 260 | > 10000 | > 10000 | > 10000 | – | – | – | – |
| COc1ccccc1CC(=O)N1CCN(CCCc2ccccc2)CC1 [YZ-048-2] | 56 ± 8 | 294 ± 10 | – | – | – | – | – | 56 ± 8 | 294 ± 10 |
| COc1ccc(CC(=O)N2CCN(CCCc3ccccc3)CC2)cc1 [YZ-051-2] | 13 ± 2 | 464 ± 34 | – | – | – | – | – | 13 ± 2 | 464 ± 34 |
| COc1ccc(CCN2CCN(CCCc3ccccc3)CC2)cc1 [YZ-067-2] | 1 ± 0.3 | 29 ± 2 | – | – | – | – | – | 1 ± 0.3 | 29 ± 2 |
| Clc1ccc(CCN2CCN(CCCc3ccccc3)CC2)cc1Cl [YZ-069-2] | 2 ± 0.2 | 39 ± 2 | – | – | – | – | – | 2 ± 0.2 | 39 ± 2 |
| COc1cccc(CCN2CCN(C(=O)Cc3cccc(OC)c3)CC2)c1 [YZ-085-2] | – | 12 ± 2 | – | – | – | – | – | – | 12 ± 2 |
| NCCN1CCN(CCCc2ccccc2)CC1 [YZ-136-2] | 3 ± 0.09 | 188 ± 13 | – | – | – | – | – | 3 ± 0.09 | 188 ± 13 |
| O=C(Cc1ccc([N+](=O)[O-])cc1)N1CCN(CCCc2ccccc2)CC1 [YZ-155-2] | 14 ± 1 | 167 ± 4 | – | – | – | – | – | 14 ± 1 | 167 ± 4 |
| Nc1ccccc1CCN1CCN(CCCc2ccccc2)CC1 [YZ-165-2-2] | 5 ± 0.1 | 18 ± 0.2 | – | – | – | – | – | 5 ± 0.1 | 18 ± 0.2 |
| COc1ccccc1CCN1CCN(CCCc2ccccc2)CC1 [YZ-184-2] | – | 8 ± 0.2 | – | – | – | – | – | – | 8 ± 0.2 |
